From ChEMBL document CHEMBL5036361, “Structurally Diverse Sesquiterpenoid Glycoside Esters from Pittosporum qinlingense with Anti-neuroinflammatory Activity” (J Nat Prod, 2022) come the findings set out here.

Activity calls are given as the source filed them. No cut-off for these calls is given here. Where only a bound is given, the exact number is not on record here.

Broadly, the IC50 is the midpoint of a concentration-inhibition curve.

The test system of data set [1] is BV-2. Put plainly: Cytotoxicity against mouse BV-2 cells at 6.25 to 100 uM after 24 hrs by MTT assay. The following applies: bv-2, 24 h, dose 6.25-100 µM. Type of data set: cell-based.
Data set [2] deals with BV-2. Nature of the data set: Antineuroinflammatory activity against mouse BV-2 cells assessed as inhibition of LPS-induced NO production incubated for 24 hrs by Griess assay. The format is functional, cell-based. The settings on record: BV-2, 24 h. (In general: Nitrite, measured by Griess reagent, commonly stands in for NO production.)
Data set [3] concerns BV-2. Nature of the data set: Downregulation of LPS-induced iNOS expression in mouse BV-2 cells at 1.25 to 10 uM preincubated for 1 hr followed by LPS stimulation for 24 hrs by western blot analysis. The format is functional, cell-based. The settings on record: dose 1.25-10 µM.
Data set [4] concerns BV-2. Nature of the data set: Downregulation of LPS-induced COX-2 expression in mouse BV-2 cells at 1.25 to 10 uM preincubated for 1 hr followed by LPS stimulation for 24 hrs by western blot analysis. The format is functional, cell-based. The settings on record: dose 1.25-10 µM. (Immunoblotting shows a protein as a band on a membrane.)

For `C/C=C(/C)C(=O)O[C@H]1[C@@H](OC(C)=O)[C@@H](C)O[C@@H](O[C@]2(C)CC[C@@H]3[C@H]([C@@H]4[C@H](C)CC[C@@H]42)C3(C)C)[C@@H]1OC(C)=O`, the Activity entry in the data set with BV-2 [1] is given as “Non-Toxic”. For the same compound, in the data set on BV-2 [2], the IC50 came out at 0.97 µM. In addition, the outcome in the data set with BV-2 [3] was inactive. Besides, the outcome with BV-2 [4] was Active.
`C=C1C[C@H](O[C@@H]2O[C@H](C)[C@H](O)[C@H](O)[C@H]2OC(C)=O)[C@H]2[C@@H]([C@H]3[C@@H]1CC[C@]3(C)O)C2(C)C`: in the data set with BV-2 [1], the Activity entry is “Non-Toxic”. For the same compound, the IC50 with BV-2 [2] is over 50 µM.
The like results for `C=C1C[C@@H](O[C@@H]2O[C@H](C)[C@H](O)[C@H](OC(=O)/C(C)=C/C)[C@H]2OC(C)=O)[C@@H](C(C)C)[C@@H]2C=C(C)CC[C@@H]12` were, in that order, “Non-Toxic” and over 50 µM.
In the case of `CC(=O)O[C@@H]1[C@H](OC(=O)C=C(C)C)[C@@H](OC(C)=O)[C@H](O[C@@]2(C)CC[C@@H]3[C@H]([C@@H]4[C@H](C)CC[C@@H]42)C3(C)C)O[C@@H]1C`, the Activity result with BV-2 [1] is listed as “Non-Toxic”. In addition, the IC50 in the data set on BV-2 [2] amounted to 0.95 µM. Also, the outcome in the data set on BV-2 [3] and with BV-2 [4] was Active.
Regarding `O=c1c(O)c(-c2ccc(O)c(O)c2)oc2cc(O)cc(O)c12` [QUERCETIN], the IC50 in the data set on BV-2 [2] was 2.45 µM.
For `C=C1CC[C@@H](O)[C@]2(C)CC[C@@H](C(C)(C)O[C@@H]3O[C@H](C)[C@H](O)[C@H](OC(=O)/C(C)=C/C)[C@H]3OC(C)=O)[C@H](OC)[C@@H]12`, in the data set with BV-2 [1], the Activity result is given as “Non-Toxic”. The IC50 with BV-2 [2] was over 50 µM.
The like results for `C[C@@H]1CC[C@H]2[C@@H]1[C@H]1[C@@H](CC[C@@]2(C)O)C1(C)C` were, in that order, “Non-Toxic” and over 50 µM.
The like results for `C/C=C(/C)C(=O)O[C@H]1[C@@H](O)[C@@H](C)O[C@@H](O[C@]2(C)CC[C@@H]3[C@H]([C@@H]4[C@H](C)CC[C@@H]42)C3(C)C)[C@@H]1OC(C)=O` were, in that order, “Non-Toxic” and 1.43 µM.
`CC(=O)O[C@H]1[C@H](O[C@]2(C)CC[C@@H]3[C@H]([C@@H]4[C@H](C)CC[C@@H]42)C3(C)C)O[C@H](CO)[C@@H](O)[C@@H]1O`: in the data set with BV-2 [1], the Activity entry is reported as “Non-Toxic”. Also, the IC50 in the data set with BV-2 [2] was over 50 µM.
In the same order, the values of `C[C@@H]1CC[C@H]2[C@@H]1[C@H]1[C@@H](CC[C@@]2(C)O[C@@H]2O[C@H](C)[C@H](O)[C@H](O)[C@H]2O)C1(C)C` are “Non-Toxic” and over 50 µM.
Consider `C/C=C(/C)C(=O)O[C@H]1[C@H](O)[C@@H](CO)O[C@@H](O[C@]2(C)CC[C@@H]3[C@H]([C@@H]4[C@H](C)CC[C@@H]42)C3(C)C)[C@@H]1OC(C)=O`, for which the Activity result with BV-2 [1] is given as “Non-Toxic”. The IC50 with BV-2 [2] came out at 6.27 µM. Moreover, the outcome in the data set with BV-2 [3] and in the data set with BV-2 [4] was Active.
With `CC(C)[C@@H]1CC[C@@]2(C)[C@H](O)CC[C@](C)(O)[C@@H]2[C@H]1O`, in the data set with BV-2 [1], the Activity entry was “Non-Toxic”. In addition, the IC50 with BV-2 [2] was over 50 µM.
For the compound `C/C=C(/C)C(=O)O[C@H]1[C@H](O)[C@@H](OC(C)=O)[C@H](O[C@]2(C)CC[C@@H]3[C@H]([C@@H]4[C@H](C)CC[C@@H]42)C3(C)C)O[C@@H]1CO`, in the data set on BV-2 [1], the Activity result was “Non-Toxic”. In addition, the IC50 in the data set on BV-2 [2] was 21.5 µM.
As for `C=C1C[C@H](O[C@@H]2O[C@H](C)[C@H](O)[C@H](OC(=O)/C(C)=C/C)[C@H]2OC(C)=O)[C@H]2[C@@H]([C@H]3[C@@H]1CC[C@]3(C)O)C2(C)C`, the Activity result with BV-2 [1] was “Non-Toxic”. Also, the IC50 in the data set with BV-2 [2] was over 50 µM.
For `CC1(C)[C@H]2[C@H]3[C@@H](CC[C@@]3(C)O)[C@](C)(O)CC[C@H]21`, the Activity result in the data set on BV-2 [1] is recorded as “Non-Toxic”. The IC50 in the data set with BV-2 [2] is over 50 µM.
As for `C/C=C(/C)C(=O)O[C@@H]1[C@@H](OC(C)=O)[C@H](O[C@]2(C)CC[C@@H]3[C@H]([C@@H]4[C@H](C)CC[C@@H]42)C3(C)C)OC[C@H]1O`, the Activity entry in the data set on BV-2 [1] was “Non-Toxic”. In addition, the IC50 in the data set with BV-2 [2] came out at 24.1 µM.
For the compound `CCC(C)C(=O)O[C@H]1[C@@H](O)[C@@H](C)O[C@@H](O[C@]2(C)CC[C@@H]3[C@H]([C@@H]4[C@H](C)CC[C@@H]42)C3(C)C)[C@@H]1OC(C)=O` (some centres not stated), the Activity result with BV-2 [1] was “Non-Toxic”. Also, the concentration for half-maximal inhibition (IC50) in the data set with BV-2 [2] is over 50 µM.
On to `CC(=O)O[C@H]1[C@H](O[C@@]2(C)CC[C@@H]3[C@H]([C@@H]4[C@H](C)CC[C@@H]42)C3(C)C)O[C@H](C)[C@H](O)[C@@H]1OC(=O)C=C(C)C`, for which the Activity entry in the data set with BV-2 [1] was “Non-Toxic”. The IC50 in the data set on BV-2 [2] came out at 4.95 µM. Besides, the result in the data set with BV-2 [3] and in the data set on BV-2 [4] was Active.
For `CC(=O)O[C@H]1[C@H](O[C@]2(C)CC[C@@H]3[C@H]([C@@H]4[C@H](C)CC[C@@H]42)C3(C)C)O[C@H](C)[C@H](O)[C@@H]1OC(=O)/C=C(/C)CO`, the Activity result in the data set on BV-2 [1] is listed as “Non-Toxic”. The IC50 in the data set on BV-2 [2] is 17.6 µM.
In the same order, the values of `C/C=C(\C)C(=O)O[C@H]1[C@@H](O)[C@@H](C)O[C@@H](O[C@H]2C[C@@](C)(O)[C@H]3CC[C@](C)(O)[C@H]3[C@H]3[C@@H]2C3(C)C)[C@@H]1OC(C)=O` are “Non-Toxic” and over 50 µM.
